Data: publication PMC6063332 (Archives of Toxicology, 2018)

Assays:
HDAC10 = target: T1, HDAC10 (Homo sapiens, UniProt Q969S8); test: NanoBRET cellular target engagement assay; format: binding; conditions: HeLa cells
T1 construct: host or cells: HeLa cells, stably transfected
T1 sequence (Q969S8 1-669): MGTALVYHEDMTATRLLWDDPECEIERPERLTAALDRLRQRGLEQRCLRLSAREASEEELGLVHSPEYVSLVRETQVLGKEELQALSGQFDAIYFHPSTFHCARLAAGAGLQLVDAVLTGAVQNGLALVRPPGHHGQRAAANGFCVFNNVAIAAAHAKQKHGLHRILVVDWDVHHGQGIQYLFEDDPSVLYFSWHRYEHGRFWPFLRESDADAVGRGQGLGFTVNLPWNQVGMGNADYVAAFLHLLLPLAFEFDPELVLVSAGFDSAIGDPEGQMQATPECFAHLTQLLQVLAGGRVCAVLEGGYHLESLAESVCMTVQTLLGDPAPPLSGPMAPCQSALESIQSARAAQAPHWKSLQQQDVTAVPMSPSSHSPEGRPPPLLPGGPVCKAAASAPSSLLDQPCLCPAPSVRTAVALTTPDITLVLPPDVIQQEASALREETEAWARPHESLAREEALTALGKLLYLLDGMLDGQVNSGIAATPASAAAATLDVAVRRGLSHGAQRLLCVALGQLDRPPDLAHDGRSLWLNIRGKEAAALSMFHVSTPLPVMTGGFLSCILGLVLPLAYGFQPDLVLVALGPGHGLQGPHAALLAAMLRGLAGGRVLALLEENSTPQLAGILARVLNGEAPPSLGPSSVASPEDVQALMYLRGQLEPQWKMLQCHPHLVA
Procedure: HeLa cells, stably transfected with NanoBRET plasmids NanoLuc®-HDAC6 FL Fusion Vector and NanoLuc®-HDAC10 FL Fusion Vector (Promega, Madison, WI, USA) were seeded at 20,000 cells/well in white 96-well plates. Without further incubation, tracer (0.3 µM) and drugs were added in separate steps and plates were placed in a tissue culture incubator for 2 h. For NanoBRET quantification, plates were put at room temperature for 10 min. Nanoglow substrate, diluted in OptiMEM without phenol red, was added and measured within 10 min in an OPTIMA plate reader (460 nm emission for donor and 610LP filter for acceptor, BMG Labtech, Ortenberg, Germany). The BRET signal was calculated by the ratio of acceptor signal to donor signal.

HDAC3 = target: T2, HDAC3 (Homo sapiens, UniProt O15379); test: Biochemical HDAC3 activity, fluorogenic p53 peptide (Reaction Biology); conditions: fluorogenic p53 peptide RHKK(Ac)AMC
T2 construct: purchased Reaction Biology Corp. (contract testing)
Excerpt: ^2 Biochemical HDAC3 IC50 value, determined using a fluorogenic p53 peptide, detailed results depicted in Supplementary Figure 1 a.

T2 sequence (O15379 whole entry): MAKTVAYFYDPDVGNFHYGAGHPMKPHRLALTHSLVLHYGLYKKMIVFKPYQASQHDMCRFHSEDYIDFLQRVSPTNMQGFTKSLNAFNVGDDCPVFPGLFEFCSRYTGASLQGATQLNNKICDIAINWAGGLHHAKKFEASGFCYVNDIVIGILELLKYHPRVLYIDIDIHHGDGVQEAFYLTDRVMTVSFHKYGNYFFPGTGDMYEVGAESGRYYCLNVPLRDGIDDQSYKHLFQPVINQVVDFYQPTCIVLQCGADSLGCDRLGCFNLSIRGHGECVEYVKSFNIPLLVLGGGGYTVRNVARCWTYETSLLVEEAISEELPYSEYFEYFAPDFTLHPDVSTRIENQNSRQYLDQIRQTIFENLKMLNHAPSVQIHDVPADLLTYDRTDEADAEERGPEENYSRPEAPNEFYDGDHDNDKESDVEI
T2 sequence (Q9Y618 395-489 partner limits assumed): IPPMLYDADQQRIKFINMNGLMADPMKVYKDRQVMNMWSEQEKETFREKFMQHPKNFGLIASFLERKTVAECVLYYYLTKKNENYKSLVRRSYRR

Cc1ccc(C(=O)NO)cc1NCc1ccccc1 [TH34, 3-(N-benzylamino)-4-methylbenzhydroxamic acid]
IC50 (HDAC10): 7.7 µM | IC50 (HDAC3): 78.3 ± 0.9 µM
